Test results reported in patent US10961228B2, “JAK1 selective inhibitors” (AstraZeneca AB, priority 2017, dated 2021).

Tests used:
[1] = test system: OVA-challenged Brown Norway rat; assay: OVA lung inflammation model, eosinophils in broncho alveolar lavage; format: in vivo; conditions: for reduction of eosinophils in BAL: inhaled DPI, vs OVA/OVA group 3
Protocol: Brown Norway rats were sensitised and challenged with chicken ovary albumin (OVA) (Clinical and Experimental Allergy, 37 (2007) 973-988). After inhaling an amount of micronized compound within the scope of the present disclosure, the reduction in airway inflammation in the lung of OVA-challenged Brown Norway rat was measured as % reduction of eosinophils in broncho alveolar lavage (BAL) compared to challenged, but untreated rat using the following protocol. As the model control, an i.t. over dose (2*300 μg/kg) of the model reference compound, Budesonide, was used. 74 animals were divided into 8 experimental groups and treated as follows: • Group 1 (Saline/Saline/Air), n=6—Sham (saline) sensitisation at Day0 (S1) and Day7 (S2) and sham (saline) challenged at Day14 (P1). Treatment room air • Group 2 (OVA/Saline/Lactose), n=8—Sensitised at Day0 (S1) and Day7 (S2) with Al(OH)3/OVA mixture followed by the i.t. sham (saline) challenge at Day14 (P1). Treatment DPI Lactose. • Group 3 (OVA/OVA/Lactose), n=12—Sensitised at Day0 (S1) and Day7 (S2) with Al(OH)3/OVA mixture followed by the i.t. OVA challenge at Day14 (P1). […] Treatment i.t. with Budesonide (model reference compound) at 2×300 μg/kg Day14. Twice daily. Prior to start of first sensitisation (S1), the body weight (BW) was recorded and all rats were tail marked with the identification number. The BW was additionally recorded prior to S2 and prior to the termination point (D15). All of the animals' BAL was determined. At the time of termination, the performer(s) (investigator) were blinded to the status of the individual rats, The rats where subcutaneously (s.c.) injected with a mixture of OVA/Al(OH)3 (100 μg OVA:100 mg Alum in 1 ml saline/rat), and intraperitoneally (i.p.) injected with 0.5 ml/rat of B. Pertussis toxin (0.1 μg/ml) at Day 0 and Day 7. Sham sensitisation was performed by s.c. and i.p. injections of isotonic saline with the same volume and strategy. Each exposure system consisted of a flow-past exposure inhalation chamber, rat restraining tubes and a Modified Wright Dust Feed mechanism. Measurements of the aerosol concentration in the inhalation chamber for each dose level was performed by filter sampling at one of the inhalation ports (AP40, 47 mm, Millipore). […] Rats from Group 2 and 3 were exposed to lactose in the restraining tube (Battelle chambers). Target inhaled doses (μg/kg) were calculated assuming exposure duration of 2-10 minutes and a body weight of 250 g using the following formula: The rats were weighed the day prior to OVA challenge. At challenge the rats were anaesthetised with Isoflurane mixture (air and 4% isoflurane) put in supine position with 30-40° angle and instilled with vehicle or compound. This intra-tracheal instillation was performed by using a modified metal cannula with bolus-bulb on the end. Rats were placed in. cages in a supine position with a head up until regaining consciousness. The reference compound was administered twice daily with the second daily administration 6 hours post the first daily administration. Instillation volume: 0.25 mL/rat. Five minutes (5′) before OVA challenge, blood was collected (0.2 ml) from the tongue vein and plasma (60 ul/well) was collected on 96-deepwell plate. The provocation occurred at Day14 (P1) and was applied 2 hours after compound administration. The rats were anaesthetized with Isoflurane mixture (air and 4% isoflurane) put in supine position with 30-40° angle and instilled with the isotonic saline or OVA (0.1 mg/ml). The intra-tracheal instillation was performed. by using a modified metal cannula with bolus-bulb on the end. Rats were placed in cages in a supine position with a head up until regaining consciousness. Sham challenge was performed by i.t. instillation of isotonic saline with the same volume and strategy. Instillation volume: 0.25 ml/rat. At 22 hours post OVA challenge (P1), rats were euthanized with an intraperitoneal injection of 1 ml pentobarbital (50 mg/ml). […]

[2] = molecular target: recombinant JAK1 (amino acids 866-1154) (Homo sapiens (Human), UniProt P23458); assay: Enzyme inhibition studies, JAK1 (5 mM ATP, Caliper); format: biochemical
recombinant JAK1 (amino acids 866-1154), sequence (P23458 866-1154): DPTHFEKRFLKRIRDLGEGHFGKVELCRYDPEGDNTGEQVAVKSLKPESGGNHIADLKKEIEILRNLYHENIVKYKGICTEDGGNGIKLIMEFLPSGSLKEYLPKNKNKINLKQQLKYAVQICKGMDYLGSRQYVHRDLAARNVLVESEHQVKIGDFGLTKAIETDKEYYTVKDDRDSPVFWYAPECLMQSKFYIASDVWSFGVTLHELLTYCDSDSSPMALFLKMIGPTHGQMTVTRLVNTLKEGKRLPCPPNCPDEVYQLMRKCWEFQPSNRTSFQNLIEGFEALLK
Method in brief: (§1)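 N-terminal GST-fused kinase domains from insect cells, run at 5 mM ATP with inhibitor at 30, 3, 0.3, 0.03, 0.003 and 0 μM final.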

[3] = Plasma drug concentration by LC-MSMS at termination of alopecia areata study; format: in vivo; conditions: 1-2 h after last oral dose at 12.5 mg/kg BW, C3H/HeJ mice
Protocol: Blood was sampled from behind the eye in EDTA-coated test tubes (Multivette 300, Sarstedt) and kept on ice. Plasma was obtained by centrifugation (4° C., 4000 G, 5 min) and 50 μL transferred to a 96-well NUNC plate and stored at −20° C. until analyzed with regards to drug concentration by LC-MSMS.

[4] = molecular target: recombinant JAK3 (amino acids 781-1124) (Homo sapiens (Human), UniProt P52333); assay: Enzyme inhibition studies, JAK3 (5 mM ATP, Caliper); format: biochemical
recombinant JAK3 (amino acids 781-1124), sequence (P52333 781-1124): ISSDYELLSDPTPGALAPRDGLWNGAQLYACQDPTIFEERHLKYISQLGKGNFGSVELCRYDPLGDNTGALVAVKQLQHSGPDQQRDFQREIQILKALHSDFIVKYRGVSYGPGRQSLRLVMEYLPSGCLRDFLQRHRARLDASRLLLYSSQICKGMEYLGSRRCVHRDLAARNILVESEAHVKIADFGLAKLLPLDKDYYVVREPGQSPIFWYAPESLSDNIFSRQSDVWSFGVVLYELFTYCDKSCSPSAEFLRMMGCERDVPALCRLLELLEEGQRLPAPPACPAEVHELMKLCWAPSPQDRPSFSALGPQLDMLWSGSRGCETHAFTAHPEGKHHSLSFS
Method in brief: as §1

[5] = test system: IL-13 induced STAT6 promotor luciferase reporter in U937 monocytes (U937-STAT6-Luc); assay: Cellular interleukin (IL-13) induced JAK-STAT6-luciferase assay (pSTAT6); format: cell-based; conditions: Homo sapiens, U-937; IL-13 induced STAT6-luciferase, U937-STAT6-Luc cells
Method in brief: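 U937 STAT6-luciferase reporter cells in HEPES/HBSS/0.1% BSA buffer, pretreated with serially diluted compounds (10 mM to 0.5 nM DMSO stocks) and stimulated with IL-13. Incubation 4½ h at 37 °C then 30 min at room temperature; SteadyGlo luminescence read.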

[6] = molecular target: recombinant JAK2 (amino acids 831-1132) (Homo sapiens (Human), UniProt O60674); assay: Enzyme inhibition studies, JAK2 (5 mM ATP, Caliper); format: biochemical
recombinant JAK2 (amino acids 831-1132), sequence (O60674 831-1132): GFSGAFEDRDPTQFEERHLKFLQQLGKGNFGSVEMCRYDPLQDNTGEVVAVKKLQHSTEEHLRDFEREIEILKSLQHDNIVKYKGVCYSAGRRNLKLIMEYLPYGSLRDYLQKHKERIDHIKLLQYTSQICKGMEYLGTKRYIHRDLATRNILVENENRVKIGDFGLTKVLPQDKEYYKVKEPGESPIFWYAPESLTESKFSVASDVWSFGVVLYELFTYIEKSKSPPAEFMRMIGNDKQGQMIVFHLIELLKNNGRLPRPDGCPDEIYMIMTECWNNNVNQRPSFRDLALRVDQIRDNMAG
Method in brief: as §1

SMILES | inhibition of eosinophils ([1]; i.t. over dose 2*300, twice daily Day14 (Group 8)) [%] | max inhibition of eosinophils ([1]; compared to OVA control (group 3), plateau from the 0.6 μg/kg dose) [%] | reduction of eosinophils in BAL ([1]; lung dose 0.08 μg/kg, not significant) [%] | reduction of eosinophils in BAL ([1]; lung dose 0.11 μg/kg, not significant) [%] | reduction of eosinophils in BAL ([1]; lung dose 0.6 μg/kg, p<0.01) [%] | reduction of eosinophils in BAL ([1]; lung dose 4.76 μg/kg, p<0.01) [%] | IC50 [2] [nM] | mean plasma exposure (total concentration) [3] [nM] | IC50 [4] [µM] | IC50 [5] [nM] | IC50 [6] [µM]
CCCC1O[C@@H]2C[C@H]3[C@@H]4CCC5=CC(=O)C=C[C@]5(C)[C@H]4[C@@H](O)C[C@]3(C)[C@]2(C(=O)CO)O1 (stereo partly drawn) [Budesonide, reference compound] | 97 |  |  |  |  |  |  |  |  |  | 
COC[C@H](C(=O)Nc1cccc2c(-c3nc(Nc4cccc(S(C)(=O)=O)c4F)ncc3F)c[nH]c12)N1CCN(C)CC1 [Example 35, (R)-N-(3-(5-fluoro-2-(2-fluoro-3-(methylsulfonyl)phenylamino)pyrimidin-4-yl)-1H-indol-7-yl)-3-methoxy-2-(4-methylpiperazin-1-yl)propanamide] |  | 68 | 7 | 28 | 68 | 61 | < 3 | 338 | > 30 |  | 
COC[C@@H](C(=O)Nc1cccc2c(-c3nc(Nc4cccc(S(C)(=O)=O)c4F)ncc3C)c[nH]c12)N1CCN(C)C[C@H]1C [Example 54, (S)-2-((R)-2,4-dimethylpiperazin-1-yl)-N-(3-(2-((2-fluoro-(methylsulfonyl)phenyl)amino)-5-methylpyrimidin-4-yl)-1H-indol-7-yl)-3-methoxypropanamide] |  |  |  |  |  |  | 14 |  | > 30 | 258 | 6.72
COC[C@H](C(=O)Nc1cccc2c(-c3nc(Nc4cccc(S(C)(=O)=O)c4F)ncc3C)c[nH]c12)N1CCN(C)C[C@H]1C [Example 55, (R)-2-((R)-2,4-dimethylpiperazin-1-yl)-N-(3-(2-((2-fluoro-3-(methylsulfonyl)phenyl)amino)-5-methylpyrimidin-4-yl)-1H-indol-7-yl)-3-methoxypropanamide] |  |  |  |  |  |  | < 3 |  | > 30 | 26 | 0.293
COC[C@@H](C(=O)Nc1cccc2c(-c3nc(Nc4cccc(S(C)(=O)=O)c4F)ncc3F)c[nH]c12)N1CCN(C)C[C@H]1C [Example 56] |  |  |  |  |  |  | 123 |  | > 30 | 745 | > 30
COC[C@H](C(=O)Nc1cccc2c(-c3nc(Nc4cccc(S(C)(=O)=O)c4F)ncc3F)c[nH]c12)N1CCN(C)C[C@H]1C [Example 57, (R)-2-((R)-2,4-dimethylpiperazin-1-yl)-N-(3-(5-fluoro-2-((2-fluoro-3-(methylsulfonyl)phenyl)amino)pyrimidin-4-yl)-1H-indol-7-yl)-3-methoxypropanamide] |  |  |  |  |  |  | < 3 |  | > 30 | 21 | 0.709
Cc1cnc(Nc2cccc(S(C)(=O)=O)c2F)nc1-c1c[nH]c2c(NC(=O)[C@@H](C)N3CCN(C)C[C@@H]3C)cccc12 [Example 58, (R)-2-((S)-2,4-dimethylpiperazin-1-yl)-N-(3-(2-((2-fluoro-3-(methylsulfonyl)phenyl)amino)-5-methylpyrimidin-4-yl)-1H-indol-7-yl)propanamide] |  |  |  |  |  |  | 48.6 |  | > 30 | 130 | 25.3
Cc1cnc(Nc2cccc(S(C)(=O)=O)c2F)nc1-c1c[nH]c2c(NC(=O)[C@H](C)N3CCN(C)C[C@@H]3C)cccc12 [Example 59, (S)-2-((S)-2,4-dimethylpiperazin-1-yl)-N-(3-(2-((2-fluoro-3-(methylsulfonyl)phenyl)amino)-5-methylpyrimidin-4-yl)-1H-indol-7-yl)propanamide] |  |  |  |  |  |  | 145 |  | > 30 | > 6250 | > 30
CCOC[C@H](C(=O)Nc1cccc2c(-c3nc(Nc4cccc(S(C)(=O)=O)c4F)ncc3C)c[nH]c12)N1CCN(C)CC1 [Example 62, (R)-3-ethoxy-N-(3-(2-((2-fluoro-3-(methylsulfonyl)phenyl)amino)-5-methylpyrimidin-4-yl)-1H-indol-7-yl)-2-(4-methylpiperazin-1-yl)propanamide] |  |  |  |  |  |  | < 3 |  | > 30 | 54 | 4.14
Cc1cnc(Nc2cccc(S(C)(=O)=O)c2F)nc1-c1c[nH]c2c(NC(=O)[C@@H](COCc3ccccc3)N3CCN(C)CC3)cccc12 [Example 64, (R)-3-(benzyloxy)-N-(3-(2-((2-fluoro-3-(methylsulfonyl)phenyl)amino)-5-methylpyrimidin-4-yl)-1H-indol-7-yl)-2-(4-methylpiperazin-1-yl)propanamide] |  |  |  |  |  |  | < 30 |  | > 30 | 26 | 0.91
Cc1cnc(Nc2cccc(S(C)(=O)=O)c2F)nc1-c1c[nH]c2c(NC(=O)[C@H](COCc3ccccc3)N3CCN(C)CC3)cccc12 [Example 65, (S)-3-(benzyloxy)-N-(3-(2-((2-fluoro-3-(methylsulfonyl)phenyl)amino)-5-methylpyrimidin-4-yl)-1H-indol-7-yl)-2-(4-methylpiperazin-1-yl)propanamide] |  |  |  |  |  |  | 73 |  | > 30 | 508 | > 30
